Among the test systems are U251 CNS; NCI-H460 lung; HCT-15 colon; CAKI-1 renal; EKVX NSCLC; LOX IMVI melanoma; OVCAR-5 ovarian; NCI-H522 lung; HCC-2998 colon; HOP-92 NSCLC.
Holding throughout (experiment): NCI anticancer screen, dose series, 48 h

Each structure is given as a SMILES string.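 These data come from cells grown in 96-well plates and exposed to compound for 48 hours at five concentrations. Here, GI50 denotes the concentration required for 50% inhibition of growth. TGI: concentration producing complete growth inhibition.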

With `COc1cccc(/C=N\NC(=O)c2ccncc2)c1O`, the GI50 was 2.95 µM in the assay with U251 CNS; 3.63 µM with NCI-H460 lung; 2.87 µM in the assay with HCT-15 colon; 1.88 µM with CAKI-1 renal; 6.78 µM in the assay on EKVX NSCLC; 2.2 µM in the assay with LOX IMVI melanoma. Further, the GI50 in the assay with OVCAR-5 ovarian is 12.9 µM; with NCI-H522 lung, 3.24 µM; with HCC-2998 colon it was 4.73 µM; in the assay on HOP-92 NSCLC it was 3.16 µM. For the same compound, the TGI in the assay with U251 CNS was more than 100 µM; in the assay with NCI-H460 lung, more than 100 µM; in the assay on HCT-15 colon, more than 100 µM; in the assay with CAKI-1 renal it was 17.6 µM; in the assay on EKVX NSCLC, more than 100 µM; with LOX IMVI melanoma, more than 100 µM. Also, the TGI with OVCAR-5 ovarian, in the assay with NCI-H522 lung, in the assay on HCC-2998 colon and in the assay with HOP-92 NSCLC was more than 100 µM each time.

With `Cc1nnn(C)c1-c1cnc2c3ccc(C(C)(C)O)cc3n([C@H](c3ccccc3)C3CCOCC3)c2c1`, the GI50 is 0.27 µM in the assay on U251 CNS; 0.966 µM with NCI-H460 lung; less than 0.0106 µM in the assay with HCT-15 colon; less than 0.01 µM in the assay on CAKI-1 renal; 0.221 µM in the assay with EKVX NSCLC; less than 0.01 µM with LOX IMVI melanoma. The GI50 with OVCAR-5 ovarian was 0.0907 µM; in the assay on NCI-H522 lung, less than 0.01 µM; in the assay with HCC-2998 colon it was 0.0356 µM; in the assay with HOP-92 NSCLC it was less than 0.01 µM. Also, the TGI with U251 CNS was more than 47.5 µM; with NCI-H460 lung, more than 65.7 µM; in the assay on HCT-15 colon, 14.6 µM; in the assay on CAKI-1 renal it was 13.2 µM; with EKVX NSCLC it was more than 71.7 µM; in the assay on LOX IMVI melanoma, 1.52 µM. Besides, the TGI with OVCAR-5 ovarian is more than 100 µM; in the assay with NCI-H522 lung, 20.9 µM; with HCC-2998 colon it was 3.98 µM; with HOP-92 NSCLC, 22.7 µM.

For the compound `CCc1cc2c(c(OCC(F)(F)F)c(C(=O)NC3CCN(C(=O)CO)CC3)n2C)c(=O)n1CC(=O)c1ccccc1`, the GI50 with U251 CNS is more than 82.9 µM; in the assay with NCI-H460 lung it was more than 57.8 µM; in the assay on HCT-15 colon, 52.3 µM; in the assay with CAKI-1 renal, more than 60.3 µM; in the assay on EKVX NSCLC, more than 100 µM; in the assay on LOX IMVI melanoma it was more than 80 µM. The GI50 in the assay with OVCAR-5 ovarian is more than 100 µM; with NCI-H522 lung it was more than 95.9 µM; in the assay with HCC-2998 colon, more than 78 µM; in the assay with HOP-92 NSCLC, more than 62.4 µM. The TGI in the assay on U251 CNS, with NCI-H460 lung, in the assay with HCT-15 colon, with CAKI-1 renal, in the assay on EKVX NSCLC and in the assay on LOX IMVI melanoma was more than 100 µM in each case. The TGI with OVCAR-5 ovarian, with NCI-H522 lung, in the assay on HCC-2998 colon and with HOP-92 NSCLC was more than 100 µM each time.

Turning to `COc1cccc(/C=C2\CCC(CN(C)C)C2=O)c1` (stereo not given), the TGI is 26.5 µM with U251 CNS; 35 µM in the assay with NCI-H460 lung; 7.97 µM in the assay with HCT-15 colon; 15.7 µM in the assay on CAKI-1 renal; 42.1 µM in the assay with EKVX NSCLC; 3.51 µM in the assay on LOX IMVI melanoma. In addition, the TGI in the assay with OVCAR-5 ovarian worked out at 29.6 µM; in the assay on NCI-H522 lung it was 6.15 µM; in the assay with HCC-2998 colon, 24.4 µM; in the assay with HOP-92 NSCLC, 33.9 µM.

Regarding `CCOC(=O)C1CC(=O)C=C2CCCCC21` (stereo not given), the TGI in the assay with U251 CNS, with NCI-H460 lung, in the assay with HCT-15 colon, in the assay on CAKI-1 renal, in the assay with EKVX NSCLC and with LOX IMVI melanoma was more than 100 µM in each case. Moreover, the TGI in the assay with OVCAR-5 ovarian, with NCI-H522 lung, in the assay on HCC-2998 colon and with HOP-92 NSCLC was more than 100 µM in each case.

Regarding `c1cc(OCCN2CCCC2)ccc1CNc1ccc2nc(CCC3CCCCC3)[nH]c2c1`, the GI50 in the assay with U251 CNS was 1.41 µM; in the assay with NCI-H460 lung, 2.13 µM; in the assay on HCT-15 colon, 1.55 µM; in the assay with CAKI-1 renal, 1.79 µM; with EKVX NSCLC, 1.86 µM; in the assay on LOX IMVI melanoma, 1.67 µM. Also, the GI50 was 2.19 µM in the assay with OVCAR-5 ovarian, 2.1 µM in the assay on NCI-H522 lung, 2.03 µM in the assay with HCC-2998 colon and 0.471 µM with HOP-92 NSCLC. Further, the TGI with U251 CNS was determined as 3.16 µM; in the assay with NCI-H460 lung it was 4.87 µM; with HCT-15 colon, 3.7 µM; in the assay on CAKI-1 renal, 3.38 µM; with EKVX NSCLC, 6.51 µM; in the assay with LOX IMVI melanoma it was 3.11 µM. Moreover, the TGI in the assay with OVCAR-5 ovarian was found to be 6.59 µM; in the assay on NCI-H522 lung, 4.47 µM; with HCC-2998 colon, 4.29 µM; with HOP-92 NSCLC, 2.25 µM.

In the case of `CN1CCN(C)C1c1ccc(C2N(C)CCN2C)cc1`, the GI50 in the assay with U251 CNS is 39.7 µM; in the assay with NCI-H460 lung, more than 100 µM; with HCT-15 colon, 77.7 µM; in the assay on CAKI-1 renal it was more than 100 µM; with EKVX NSCLC, more than 100 µM; in the assay with LOX IMVI melanoma, 31.3 µM. In addition, the GI50 was 86.4 µM with OVCAR-5 ovarian, more than 100 µM in the assay on NCI-H522 lung, 40.5 µM with HCC-2998 colon and more than 100 µM with HOP-92 NSCLC. The TGI with U251 CNS, in the assay on NCI-H460 lung, in the assay on HCT-15 colon, with CAKI-1 renal, in the assay on EKVX NSCLC and in the assay on LOX IMVI melanoma was more than 100 µM throughout. Also, the TGI in the assay on OVCAR-5 ovarian, in the assay on NCI-H522 lung, in the assay on HCC-2998 colon and in the assay with HOP-92 NSCLC was more than 100 µM throughout.

`O=c1[nH]c(-c2ccc(Cl)c(Cl)c2)cn1-c1ccc(Cl)cc1`: the GI50 is 17.4 µM with U251 CNS; 22.3 µM in the assay with NCI-H460 lung; more than 100 µM in the assay with HCT-15 colon; 25.4 µM in the assay with CAKI-1 renal; 35.4 µM in the assay with EKVX NSCLC; 36.2 µM in the assay on LOX IMVI melanoma. Further, the GI50 in the assay with OVCAR-5 ovarian is 30.2 µM; in the assay on NCI-H522 lung, 44.3 µM; with HCC-2998 colon, 25.2 µM; with HOP-92 NSCLC, 15.9 µM. The TGI in the assay with U251 CNS was 42.8 µM; in the assay on NCI-H460 lung, 52.2 µM; in the assay on HCT-15 colon it was more than 100 µM; in the assay with CAKI-1 renal, 49 µM; with EKVX NSCLC it was more than 100 µM; in the assay on LOX IMVI melanoma, more than 100 µM. The TGI was more than 100 µM in the assay with OVCAR-5 ovarian, more than 100 µM in the assay with NCI-H522 lung, 87.9 µM in the assay on HCC-2998 colon and 46.3 µM in the assay with HOP-92 NSCLC.

Values taken from PubChem BioAssay (NCI).
